Test results: ChEMBL document CHEMBL5465560, “Selectivity Literature for EUbOPEN Chemogenomic Library” (2024)

How the values were obtained:
[1] = molecular target: Mitogen-activated protein kinase kinase kinase 4 (Homo sapiens) (UniProt Q9Y6R4); experiment: Selectivity interaction (Kinase panel (KiNativ target engagement assay in Jurkat cells)) EUB0001635a MAP3K4; type: cell-based; conditions: Selectivity number of off-targets 0.0, Selectivity number of targets 233.0, Source Knowledge https://www.sciencedirect.com/science/article/pii/S2451945619300674?via%3Dihub, at 1 µM
[2] = molecular target: Diacylglycerol kinase alpha (Homo sapiens) (UniProt P23743); experiment: Selectivity interaction (Kinase panel (KiNativ target engagement assay in Jurkat cells)) EUB0001635a DGKA; type: cell-based; conditions: Selectivity number of off-targets 0.0, Selectivity number of targets 233.0, Source Knowledge https://www.sciencedirect.com/science/article/pii/S2451945619300674?via%3Dihub, at 1 µM
[3] = molecular target: Mitogen-activated protein kinase kinase kinase 1 (Homo sapiens, UniProt Q13233); experiment: Selectivity interaction (Kinase panel (KiNativ target engagement assay in Jurkat cells)) EUB0001635a MAP3K1; type: cell-based; conditions: Selectivity number of off-targets 0.0, Selectivity number of targets 233.0, Source Knowledge https://www.sciencedirect.com/science/article/pii/S2451945619300674?via%3Dihub, at 1 µM
[4] = molecular target: Fibroblast growth factor receptor 1 (Homo sapiens, UniProt P11362); experiment: Selectivity interaction (Kinase panel (DSF assay)) EUB0001559a FGFR1
[5] = molecular target: Cyclin-dependent kinase 4/cyclin D1 (Homo sapiens, UniProt P11802); experiment: Selectivity interaction (Competition-binding assay (DiscoverX)) EUB0001632a CDK4; type: protein-complex assay
[6] = molecular target: Calcium/calmodulin-dependent protein kinase type II subunit gamma (Homo sapiens) (UniProt Q13555); conditions: at 10 µM
[7] = molecular target: Sodium-dependent dopamine transporter (Homo sapiens, UniProt Q01959); experiment: Selectivity interaction (Eurofins CEREP Diversity Profile (receptors and ion channels)) EUB0000279b SLC6A3; conditions: at 10 µM
[8] = molecular target: Transient receptor potential cation channel subfamily M member 6 (Homo sapiens) (UniProt Q9BX84); experiment: Selectivity interaction (KinomeScan (DiscoverX)) EUB0001049a TRPM6; conditions: at 1 µM
[9] = molecular target: Tyrosine-protein kinase JAK2 (Homo sapiens, UniProt O60674); experiment: Selectivity interaction (Kinase panel (Carna Biosciences)) EUB0001542aTs JAK2; conditions: at 1 µM
[10] = test system: Hepatocyte growth factor receptor (Homo sapiens), P08581 [Y1235D]; experiment: (§1) Selectivity interaction (KinomeScan (DiscoverX)) EUB0001619a MET; conditions: at 1 µM
[11] = test system: Hepatocyte growth factor receptor (Homo sapiens), P08581 [M1250T]; experiment: as §1; conditions: at 1 µM
[12] = molecular target: Hepatocyte growth factor receptor (Homo sapiens, UniProt P08581); experiment: as §1; conditions: at 1 µM
[13] = molecular target: T1, Serine/threonine-protein kinase ULK2 (Homo sapiens) (UniProt Q8IYT8); experiment: Selectivity interaction (KinomeScan (DiscoverX)) EUB0000607a ULK2; conditions: at 10 µM
T1 sequence (whole entry): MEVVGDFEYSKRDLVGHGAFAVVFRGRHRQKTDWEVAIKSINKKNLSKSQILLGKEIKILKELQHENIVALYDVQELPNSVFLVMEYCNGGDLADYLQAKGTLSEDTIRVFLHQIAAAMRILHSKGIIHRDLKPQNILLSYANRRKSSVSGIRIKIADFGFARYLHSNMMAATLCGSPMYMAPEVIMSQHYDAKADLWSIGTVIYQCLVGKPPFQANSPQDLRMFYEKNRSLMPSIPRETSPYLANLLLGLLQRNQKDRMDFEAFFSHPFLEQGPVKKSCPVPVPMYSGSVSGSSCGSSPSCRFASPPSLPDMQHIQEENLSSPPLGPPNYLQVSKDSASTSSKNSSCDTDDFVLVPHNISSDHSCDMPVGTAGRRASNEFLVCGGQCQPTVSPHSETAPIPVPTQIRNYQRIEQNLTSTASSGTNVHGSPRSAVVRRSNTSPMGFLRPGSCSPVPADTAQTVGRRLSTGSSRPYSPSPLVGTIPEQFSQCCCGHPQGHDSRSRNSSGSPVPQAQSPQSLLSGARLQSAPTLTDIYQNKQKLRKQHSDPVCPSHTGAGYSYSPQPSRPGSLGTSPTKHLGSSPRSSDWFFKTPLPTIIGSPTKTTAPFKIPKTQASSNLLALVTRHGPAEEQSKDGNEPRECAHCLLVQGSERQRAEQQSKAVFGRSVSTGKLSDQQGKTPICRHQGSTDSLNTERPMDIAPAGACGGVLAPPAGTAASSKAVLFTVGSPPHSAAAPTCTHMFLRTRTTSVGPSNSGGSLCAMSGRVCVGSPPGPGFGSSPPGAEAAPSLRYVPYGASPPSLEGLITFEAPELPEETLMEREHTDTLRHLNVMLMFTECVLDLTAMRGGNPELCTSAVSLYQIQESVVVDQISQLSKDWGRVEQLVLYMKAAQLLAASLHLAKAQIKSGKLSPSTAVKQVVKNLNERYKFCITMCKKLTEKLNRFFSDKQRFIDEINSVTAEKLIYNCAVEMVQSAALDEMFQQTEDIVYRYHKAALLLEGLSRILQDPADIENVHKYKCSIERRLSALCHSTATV

[14] = molecular target: Vascular endothelial growth factor receptor 3 (Homo sapiens, UniProt P35916); experiment: Selectivity interaction (KinomeScan (DiscoverX)) EUB0000607a FLT4; conditions: at 10 µM

Sequence of Mitogen-activated protein kinase kinase kinase 1 (Q13233 whole entry): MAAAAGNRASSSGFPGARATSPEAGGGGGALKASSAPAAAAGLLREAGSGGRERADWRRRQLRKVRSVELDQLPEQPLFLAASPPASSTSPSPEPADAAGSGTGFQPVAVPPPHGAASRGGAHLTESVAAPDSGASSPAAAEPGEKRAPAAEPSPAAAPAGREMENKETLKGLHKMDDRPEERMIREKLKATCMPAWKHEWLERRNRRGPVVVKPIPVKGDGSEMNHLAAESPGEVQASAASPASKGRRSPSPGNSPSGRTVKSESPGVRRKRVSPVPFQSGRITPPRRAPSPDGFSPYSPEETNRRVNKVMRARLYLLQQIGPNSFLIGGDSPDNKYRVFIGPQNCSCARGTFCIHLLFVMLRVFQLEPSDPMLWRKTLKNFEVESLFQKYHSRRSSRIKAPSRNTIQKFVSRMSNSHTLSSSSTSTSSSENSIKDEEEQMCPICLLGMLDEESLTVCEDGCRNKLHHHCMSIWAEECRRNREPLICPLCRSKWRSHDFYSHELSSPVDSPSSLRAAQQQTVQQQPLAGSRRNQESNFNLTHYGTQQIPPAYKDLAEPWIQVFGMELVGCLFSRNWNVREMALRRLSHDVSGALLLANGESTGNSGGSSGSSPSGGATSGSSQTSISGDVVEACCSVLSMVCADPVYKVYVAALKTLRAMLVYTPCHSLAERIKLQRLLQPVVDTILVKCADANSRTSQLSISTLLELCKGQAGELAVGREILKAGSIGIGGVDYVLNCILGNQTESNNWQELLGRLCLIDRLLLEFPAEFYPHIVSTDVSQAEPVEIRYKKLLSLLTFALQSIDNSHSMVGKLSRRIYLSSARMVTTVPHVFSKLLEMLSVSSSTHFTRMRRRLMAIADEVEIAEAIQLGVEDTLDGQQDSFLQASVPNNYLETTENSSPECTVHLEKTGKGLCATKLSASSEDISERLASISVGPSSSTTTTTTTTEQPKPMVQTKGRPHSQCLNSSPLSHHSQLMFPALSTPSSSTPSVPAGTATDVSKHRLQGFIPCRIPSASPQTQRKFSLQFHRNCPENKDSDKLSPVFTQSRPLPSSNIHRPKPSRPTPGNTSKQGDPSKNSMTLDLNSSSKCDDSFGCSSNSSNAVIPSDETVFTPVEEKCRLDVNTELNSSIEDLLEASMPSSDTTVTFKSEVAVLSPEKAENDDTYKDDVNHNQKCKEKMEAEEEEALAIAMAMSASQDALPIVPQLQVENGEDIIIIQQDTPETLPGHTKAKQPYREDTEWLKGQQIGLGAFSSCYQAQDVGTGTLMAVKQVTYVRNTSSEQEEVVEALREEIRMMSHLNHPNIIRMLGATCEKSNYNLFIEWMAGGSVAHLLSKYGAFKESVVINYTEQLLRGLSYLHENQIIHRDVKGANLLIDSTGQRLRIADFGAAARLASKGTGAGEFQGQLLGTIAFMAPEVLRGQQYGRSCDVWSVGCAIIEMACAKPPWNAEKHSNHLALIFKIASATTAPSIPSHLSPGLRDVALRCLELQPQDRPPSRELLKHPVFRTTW
Sequence of Transient receptor potential cation channel subfamily M member 6 (Homo sapiens) (Q9BX84 whole entry): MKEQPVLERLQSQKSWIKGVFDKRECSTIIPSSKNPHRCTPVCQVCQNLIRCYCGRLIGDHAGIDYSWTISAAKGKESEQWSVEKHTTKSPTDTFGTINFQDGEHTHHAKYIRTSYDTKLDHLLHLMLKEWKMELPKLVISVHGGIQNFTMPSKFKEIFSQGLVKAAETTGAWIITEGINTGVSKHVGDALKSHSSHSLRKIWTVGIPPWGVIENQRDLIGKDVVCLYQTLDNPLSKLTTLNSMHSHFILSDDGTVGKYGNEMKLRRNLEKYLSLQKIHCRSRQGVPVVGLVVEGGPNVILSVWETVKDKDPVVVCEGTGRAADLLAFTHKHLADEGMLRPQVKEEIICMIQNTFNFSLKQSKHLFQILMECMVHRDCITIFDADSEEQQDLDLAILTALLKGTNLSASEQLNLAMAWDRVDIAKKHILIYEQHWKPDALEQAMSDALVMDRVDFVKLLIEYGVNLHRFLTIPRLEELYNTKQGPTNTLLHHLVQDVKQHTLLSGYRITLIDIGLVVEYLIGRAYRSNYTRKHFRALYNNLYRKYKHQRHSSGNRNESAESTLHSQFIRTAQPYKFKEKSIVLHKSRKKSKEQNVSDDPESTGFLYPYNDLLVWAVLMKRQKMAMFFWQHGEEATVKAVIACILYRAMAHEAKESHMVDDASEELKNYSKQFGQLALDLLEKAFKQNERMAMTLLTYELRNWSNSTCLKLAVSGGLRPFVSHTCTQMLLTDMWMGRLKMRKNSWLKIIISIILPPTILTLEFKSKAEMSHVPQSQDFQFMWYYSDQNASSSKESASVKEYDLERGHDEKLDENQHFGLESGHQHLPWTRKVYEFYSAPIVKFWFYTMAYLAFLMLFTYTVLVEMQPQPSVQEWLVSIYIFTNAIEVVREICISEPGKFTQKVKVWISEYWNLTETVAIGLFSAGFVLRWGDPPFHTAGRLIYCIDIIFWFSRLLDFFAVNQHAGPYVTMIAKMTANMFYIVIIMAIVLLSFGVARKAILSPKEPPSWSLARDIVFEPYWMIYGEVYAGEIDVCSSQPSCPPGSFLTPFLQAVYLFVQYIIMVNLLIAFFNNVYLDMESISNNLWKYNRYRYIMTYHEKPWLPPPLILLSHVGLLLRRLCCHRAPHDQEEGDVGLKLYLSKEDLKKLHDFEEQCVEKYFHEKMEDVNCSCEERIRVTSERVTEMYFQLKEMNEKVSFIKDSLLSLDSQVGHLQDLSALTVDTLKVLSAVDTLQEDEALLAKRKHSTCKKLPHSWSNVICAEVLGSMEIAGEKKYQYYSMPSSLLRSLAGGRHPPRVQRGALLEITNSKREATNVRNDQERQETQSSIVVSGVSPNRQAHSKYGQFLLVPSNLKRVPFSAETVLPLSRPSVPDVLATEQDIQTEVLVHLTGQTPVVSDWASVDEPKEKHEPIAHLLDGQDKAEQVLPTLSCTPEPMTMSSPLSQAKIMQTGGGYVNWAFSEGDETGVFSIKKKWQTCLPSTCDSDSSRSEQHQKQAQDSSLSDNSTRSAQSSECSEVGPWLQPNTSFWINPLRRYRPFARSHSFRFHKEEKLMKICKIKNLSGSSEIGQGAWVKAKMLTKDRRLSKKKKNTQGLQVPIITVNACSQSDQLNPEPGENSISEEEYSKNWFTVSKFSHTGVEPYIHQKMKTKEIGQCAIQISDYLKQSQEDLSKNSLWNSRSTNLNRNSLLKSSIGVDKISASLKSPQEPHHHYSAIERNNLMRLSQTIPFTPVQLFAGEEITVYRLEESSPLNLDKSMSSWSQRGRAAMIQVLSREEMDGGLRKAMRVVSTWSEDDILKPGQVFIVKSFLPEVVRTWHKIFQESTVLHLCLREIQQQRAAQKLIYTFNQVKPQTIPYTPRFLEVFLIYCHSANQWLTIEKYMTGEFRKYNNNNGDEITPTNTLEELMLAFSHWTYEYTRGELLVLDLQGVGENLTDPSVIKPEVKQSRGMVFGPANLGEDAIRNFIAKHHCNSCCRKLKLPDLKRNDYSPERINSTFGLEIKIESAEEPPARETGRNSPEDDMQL
Sequence of Hepatocyte growth factor receptor (Homo sapiens), P08581 [M1250T] (P08581 whole entry M1250T): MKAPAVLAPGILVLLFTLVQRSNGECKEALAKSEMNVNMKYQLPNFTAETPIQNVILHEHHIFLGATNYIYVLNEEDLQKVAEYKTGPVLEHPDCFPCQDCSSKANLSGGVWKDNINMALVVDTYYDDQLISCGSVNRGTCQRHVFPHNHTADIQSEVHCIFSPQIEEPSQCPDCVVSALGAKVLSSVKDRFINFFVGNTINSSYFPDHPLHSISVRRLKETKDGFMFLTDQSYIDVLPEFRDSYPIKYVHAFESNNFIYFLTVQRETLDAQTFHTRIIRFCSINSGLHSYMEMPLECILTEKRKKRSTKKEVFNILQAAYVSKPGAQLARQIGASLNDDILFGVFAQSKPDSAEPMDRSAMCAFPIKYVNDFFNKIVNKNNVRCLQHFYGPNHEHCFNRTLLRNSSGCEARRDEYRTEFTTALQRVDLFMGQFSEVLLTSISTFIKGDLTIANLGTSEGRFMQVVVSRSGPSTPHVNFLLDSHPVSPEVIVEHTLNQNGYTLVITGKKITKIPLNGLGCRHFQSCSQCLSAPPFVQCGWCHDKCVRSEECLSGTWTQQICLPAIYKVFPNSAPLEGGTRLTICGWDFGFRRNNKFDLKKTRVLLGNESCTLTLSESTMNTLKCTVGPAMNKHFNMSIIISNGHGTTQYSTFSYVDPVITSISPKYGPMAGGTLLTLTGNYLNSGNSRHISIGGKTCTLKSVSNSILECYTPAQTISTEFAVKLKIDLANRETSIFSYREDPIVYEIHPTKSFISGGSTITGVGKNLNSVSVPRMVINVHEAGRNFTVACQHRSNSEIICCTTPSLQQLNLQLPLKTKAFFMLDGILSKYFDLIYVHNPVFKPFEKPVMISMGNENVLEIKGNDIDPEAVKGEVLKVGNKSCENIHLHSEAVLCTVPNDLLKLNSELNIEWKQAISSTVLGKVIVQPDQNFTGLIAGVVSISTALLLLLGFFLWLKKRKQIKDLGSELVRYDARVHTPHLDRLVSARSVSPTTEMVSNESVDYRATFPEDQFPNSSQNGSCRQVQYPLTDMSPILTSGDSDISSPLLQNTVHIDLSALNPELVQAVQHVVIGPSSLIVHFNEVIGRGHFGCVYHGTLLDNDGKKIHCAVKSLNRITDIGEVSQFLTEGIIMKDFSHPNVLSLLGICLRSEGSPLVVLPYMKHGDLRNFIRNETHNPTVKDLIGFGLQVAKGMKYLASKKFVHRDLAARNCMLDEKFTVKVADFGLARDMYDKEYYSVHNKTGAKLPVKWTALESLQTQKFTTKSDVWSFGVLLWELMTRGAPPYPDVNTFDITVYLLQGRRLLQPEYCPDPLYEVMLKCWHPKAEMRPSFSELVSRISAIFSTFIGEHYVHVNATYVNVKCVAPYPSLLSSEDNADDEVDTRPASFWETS

C=CC(=O)Nc1ccc(C(=O)Nc2[nH]nc3c2CN(C(=O)N[C@H](CN(C)C)c2ccccc2)C3(C)C)cc1
% of engagement [1]: -2.6%
% of engagement [2]: -18.9%
% of engagement [3]: 12.9%

CN(C(=O)c1cnn2cccnc12)c1cc2c(cc1N1CCOCC1)C(=O)N(C[C@@H](F)C(C)(C)O)C2
dTM [4]: 1 K

Cn1cc(-n2cnc3c(NCc4nc5cc(Cl)c(Cl)cc5[nH]4)nc(N4CCOCC4)nc32)cn1
Kd [5]: > 10 µM

Cc1cc([C@@H](C)Nc2ccccc2C(=O)O)c2nc(N3CCOCC3)cc(=O)n2c1 [AZD-6482]
% of control [6]: 98%

CC(=O)c1cc(-c2ccccc2OCC2CC2)c2ncccn12
% of control [7]: 80%

COc1cc(Nc2nc(C)cc(-c3cnn4nc(OC)ccc34)n2)cc(C(F)(F)F)c1
% of control [8]: 96%

Cn1cc(Nc2nccc(N3CC4CCC(C3)N4C(=O)[C@@H]3CC3(F)F)n2)cn1
% of inhibition [9]: 101%

N#Cc1cccc(-c2c[nH]c3ncnc(N4CCOCC4)c23)c1
% of control [10]: 93%
% of control [11]: 96%
% of control [12]: 93%

CNC(=O)Nc1ccc(-c2nc(N3CC4CCC(C3)O4)c3cnn(C4CCC5(CC4)OCCO5)c3n2)cc1
% of control [13]: 90%
% of control [14]: 88%
